Each block holds one compound with its values, some of them ahead of it.
Key:
[1] = biological target: Protein kinase C beta type (Homo sapiens) (UniProt P05771); assay: Inhibition of human PKCb1 at 500 nM by HotSpot assay relative to control
[2] = biological target: T1, Mitogen-activated protein kinase 12 (Homo sapiens) (UniProt P53778); assay: Inhibition of human P38g at 18.6 nM by HotSpot assay relative to control
T1 sequence (whole entry): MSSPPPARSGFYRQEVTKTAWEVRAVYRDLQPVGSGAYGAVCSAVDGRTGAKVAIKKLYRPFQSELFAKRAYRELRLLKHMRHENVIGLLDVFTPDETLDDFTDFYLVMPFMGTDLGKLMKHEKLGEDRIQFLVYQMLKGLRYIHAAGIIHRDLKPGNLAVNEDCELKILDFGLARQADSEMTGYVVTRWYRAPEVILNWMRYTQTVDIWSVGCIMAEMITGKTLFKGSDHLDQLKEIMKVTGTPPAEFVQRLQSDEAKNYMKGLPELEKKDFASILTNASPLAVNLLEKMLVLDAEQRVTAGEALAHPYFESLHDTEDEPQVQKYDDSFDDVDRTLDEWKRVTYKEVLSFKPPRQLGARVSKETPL

[3] = biological target: T2, Cytoplasmic tyrosine-protein kinase BMX (Homo sapiens) (UniProt P51813); assay: Inhibition of human BMX at 18.6 nM by HotSpot assay relative to control
T2 sequence (whole entry): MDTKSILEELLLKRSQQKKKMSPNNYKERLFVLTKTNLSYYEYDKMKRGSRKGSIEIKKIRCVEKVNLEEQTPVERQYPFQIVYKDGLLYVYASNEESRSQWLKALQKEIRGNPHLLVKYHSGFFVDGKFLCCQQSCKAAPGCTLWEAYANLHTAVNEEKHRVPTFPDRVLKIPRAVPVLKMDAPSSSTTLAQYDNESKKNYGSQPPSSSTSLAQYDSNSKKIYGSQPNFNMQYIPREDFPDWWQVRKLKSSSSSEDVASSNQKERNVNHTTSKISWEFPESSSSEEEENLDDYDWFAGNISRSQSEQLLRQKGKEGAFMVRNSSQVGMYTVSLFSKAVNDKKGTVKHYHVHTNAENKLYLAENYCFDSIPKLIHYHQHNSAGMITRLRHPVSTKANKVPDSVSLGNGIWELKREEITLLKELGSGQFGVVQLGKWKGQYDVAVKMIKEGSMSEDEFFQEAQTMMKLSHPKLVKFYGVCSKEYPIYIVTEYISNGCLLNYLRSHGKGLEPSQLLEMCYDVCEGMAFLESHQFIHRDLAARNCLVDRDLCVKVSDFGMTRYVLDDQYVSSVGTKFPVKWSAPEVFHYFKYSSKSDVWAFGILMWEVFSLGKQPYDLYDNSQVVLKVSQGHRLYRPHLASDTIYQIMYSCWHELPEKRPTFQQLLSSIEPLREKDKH

[4] = biological target: Calcium/calmodulin-dependent protein kinase type II subunit beta (Homo sapiens) (UniProt Q13554); assay: Inhibition of human CAMK2b at 18.6 nM by HotSpot assay relative to control
Chain of Calcium/calmodulin-dependent protein kinase type II subunit beta (Homo sapiens) (Q13554 whole entry): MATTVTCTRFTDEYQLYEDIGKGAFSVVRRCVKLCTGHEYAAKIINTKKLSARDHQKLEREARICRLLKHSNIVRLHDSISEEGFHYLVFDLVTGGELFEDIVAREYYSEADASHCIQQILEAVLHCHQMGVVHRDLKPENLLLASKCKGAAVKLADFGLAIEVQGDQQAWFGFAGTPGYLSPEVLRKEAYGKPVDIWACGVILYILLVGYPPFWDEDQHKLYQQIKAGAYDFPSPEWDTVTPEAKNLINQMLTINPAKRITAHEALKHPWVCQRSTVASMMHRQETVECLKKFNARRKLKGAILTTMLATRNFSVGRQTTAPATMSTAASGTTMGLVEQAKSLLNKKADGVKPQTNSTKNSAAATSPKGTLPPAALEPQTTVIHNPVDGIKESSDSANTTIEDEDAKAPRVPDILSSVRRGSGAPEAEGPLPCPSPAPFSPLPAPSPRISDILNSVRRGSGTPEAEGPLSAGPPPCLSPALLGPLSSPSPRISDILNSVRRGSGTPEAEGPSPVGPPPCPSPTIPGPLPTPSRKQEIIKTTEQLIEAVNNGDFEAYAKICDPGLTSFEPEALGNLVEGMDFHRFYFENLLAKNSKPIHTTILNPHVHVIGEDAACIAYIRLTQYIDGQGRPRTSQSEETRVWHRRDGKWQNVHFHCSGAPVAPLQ

[5] = biological target: Cyclin-dependent kinase 5/CDK5 activator 1 (Homo sapiens) (UniProt Q00535+Q15078); assay: Inhibition of human CDK5/p25 at 18.6 nM by HotSpot assay relative to control; assay type: protein-complex assay
Chain of Cyclin-dependent kinase 5/CDK5 activator 1 (Homo sapiens) (Q00535 whole entry, canonical isoform): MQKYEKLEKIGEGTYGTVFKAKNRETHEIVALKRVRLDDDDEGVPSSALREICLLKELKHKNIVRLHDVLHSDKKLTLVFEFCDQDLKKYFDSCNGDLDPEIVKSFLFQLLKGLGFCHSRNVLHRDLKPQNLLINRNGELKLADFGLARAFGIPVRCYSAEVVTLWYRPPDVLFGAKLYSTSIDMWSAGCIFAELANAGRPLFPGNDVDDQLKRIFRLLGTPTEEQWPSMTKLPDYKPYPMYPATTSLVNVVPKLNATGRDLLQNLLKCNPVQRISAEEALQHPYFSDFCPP
Chain of Cyclin-dependent kinase 5/CDK5 activator 1 (Homo sapiens) (Q15078 99-307 partner limits assumed): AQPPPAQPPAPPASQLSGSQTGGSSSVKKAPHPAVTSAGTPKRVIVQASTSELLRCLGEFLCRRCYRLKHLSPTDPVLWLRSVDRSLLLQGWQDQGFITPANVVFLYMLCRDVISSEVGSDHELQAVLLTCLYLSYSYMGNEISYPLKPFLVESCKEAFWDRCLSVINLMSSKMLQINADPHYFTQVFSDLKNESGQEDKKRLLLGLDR

[6] = biological target: Casein kinase I isoform alpha (Homo sapiens) (UniProt P48729); assay: Inhibition of human CK1a1 at 18.6 nM by HotSpot assay relative to control
Chain of Casein kinase I isoform alpha (Homo sapiens) (P48729 2-337 limits assumed): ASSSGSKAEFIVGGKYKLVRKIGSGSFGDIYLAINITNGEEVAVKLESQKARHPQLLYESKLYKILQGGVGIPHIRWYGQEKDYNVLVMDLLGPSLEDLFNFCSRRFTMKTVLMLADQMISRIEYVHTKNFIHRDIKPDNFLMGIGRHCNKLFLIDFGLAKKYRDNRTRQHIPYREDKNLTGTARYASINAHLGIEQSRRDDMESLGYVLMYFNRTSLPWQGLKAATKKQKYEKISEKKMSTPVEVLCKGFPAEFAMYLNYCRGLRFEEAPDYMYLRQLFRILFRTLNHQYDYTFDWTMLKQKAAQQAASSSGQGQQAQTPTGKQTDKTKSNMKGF

[7] = biological target: MAP kinase-activated protein kinase 3 (Homo sapiens) (UniProt Q16644); assay: Inhibition of human MAPKAPK3 at 1.82 nM by HotSpot assay relative to control
Chain of MAP kinase-activated protein kinase 3 (Homo sapiens) (Q16644 whole entry, looked up): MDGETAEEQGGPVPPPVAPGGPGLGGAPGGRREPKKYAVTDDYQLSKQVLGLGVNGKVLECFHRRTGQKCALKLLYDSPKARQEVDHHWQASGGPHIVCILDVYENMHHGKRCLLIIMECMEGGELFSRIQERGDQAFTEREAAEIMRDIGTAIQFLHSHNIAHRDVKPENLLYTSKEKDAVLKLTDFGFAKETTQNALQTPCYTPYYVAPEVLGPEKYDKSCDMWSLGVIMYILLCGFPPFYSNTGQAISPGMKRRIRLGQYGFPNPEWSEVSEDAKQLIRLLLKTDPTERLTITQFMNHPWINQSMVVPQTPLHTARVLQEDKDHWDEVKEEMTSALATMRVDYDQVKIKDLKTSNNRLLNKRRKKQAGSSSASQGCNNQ

[8] = biological target: T3, Dual specificity tyrosine-phosphorylation-regulated kinase 4 (Homo sapiens) (UniProt Q9NR20); assay: Inhibition of human DYRK4 at 1.82 nM by HotSpot assay relative to control
T3 sequence (whole entry): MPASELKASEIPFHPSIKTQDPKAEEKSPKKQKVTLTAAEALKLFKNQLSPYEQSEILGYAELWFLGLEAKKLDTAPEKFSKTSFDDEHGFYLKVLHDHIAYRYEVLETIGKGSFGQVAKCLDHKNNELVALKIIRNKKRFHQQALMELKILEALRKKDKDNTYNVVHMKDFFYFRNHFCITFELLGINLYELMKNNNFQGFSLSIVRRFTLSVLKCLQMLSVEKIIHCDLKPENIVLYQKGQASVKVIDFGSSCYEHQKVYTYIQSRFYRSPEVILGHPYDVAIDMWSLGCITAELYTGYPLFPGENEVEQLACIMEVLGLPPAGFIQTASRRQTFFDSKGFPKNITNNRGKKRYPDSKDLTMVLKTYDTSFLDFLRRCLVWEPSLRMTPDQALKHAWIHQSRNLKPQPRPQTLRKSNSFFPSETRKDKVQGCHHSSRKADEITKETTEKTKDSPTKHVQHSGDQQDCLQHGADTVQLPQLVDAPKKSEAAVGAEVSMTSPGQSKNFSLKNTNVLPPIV

[9] = biological target: Protein-tyrosine kinase 2-beta (Homo sapiens) (UniProt Q14289); assay: Inhibition of human PYK2 at 1.82 nM by HotSpot assay relative to control
Chain of Protein-tyrosine kinase 2-beta (Homo sapiens) (Q14289 whole entry, looked up): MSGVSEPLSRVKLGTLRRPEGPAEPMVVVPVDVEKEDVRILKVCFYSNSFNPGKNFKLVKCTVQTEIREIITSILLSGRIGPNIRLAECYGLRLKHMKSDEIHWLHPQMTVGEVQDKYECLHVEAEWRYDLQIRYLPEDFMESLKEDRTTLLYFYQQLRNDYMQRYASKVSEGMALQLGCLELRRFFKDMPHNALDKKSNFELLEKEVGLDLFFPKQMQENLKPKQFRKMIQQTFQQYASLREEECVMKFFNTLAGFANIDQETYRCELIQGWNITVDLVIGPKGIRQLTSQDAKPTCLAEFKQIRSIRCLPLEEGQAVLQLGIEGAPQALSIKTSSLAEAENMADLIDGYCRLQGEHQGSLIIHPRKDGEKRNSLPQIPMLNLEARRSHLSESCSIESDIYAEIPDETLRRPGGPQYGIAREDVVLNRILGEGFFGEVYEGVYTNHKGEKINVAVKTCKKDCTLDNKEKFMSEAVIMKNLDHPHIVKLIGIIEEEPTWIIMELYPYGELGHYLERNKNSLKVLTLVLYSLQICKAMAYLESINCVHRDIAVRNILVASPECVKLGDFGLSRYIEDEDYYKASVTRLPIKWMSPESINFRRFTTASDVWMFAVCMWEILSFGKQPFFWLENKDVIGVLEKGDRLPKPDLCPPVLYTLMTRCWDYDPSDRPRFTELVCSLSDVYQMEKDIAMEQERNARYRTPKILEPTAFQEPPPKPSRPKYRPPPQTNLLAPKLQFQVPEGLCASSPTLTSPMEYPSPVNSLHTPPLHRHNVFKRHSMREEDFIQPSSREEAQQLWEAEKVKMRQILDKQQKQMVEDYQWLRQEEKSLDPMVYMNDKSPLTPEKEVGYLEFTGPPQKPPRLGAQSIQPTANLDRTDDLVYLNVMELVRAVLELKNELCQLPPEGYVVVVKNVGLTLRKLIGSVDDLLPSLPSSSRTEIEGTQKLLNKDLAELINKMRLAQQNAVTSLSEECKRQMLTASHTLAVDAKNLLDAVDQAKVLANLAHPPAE

[10] = biological target: T4, Inhibitor of nuclear factor kappa-B kinase subunit beta (Homo sapiens) (UniProt O14920); assay: Inhibition of human IKKb at 500 nM by HotSpot assay relative to control
T4 sequence (whole entry): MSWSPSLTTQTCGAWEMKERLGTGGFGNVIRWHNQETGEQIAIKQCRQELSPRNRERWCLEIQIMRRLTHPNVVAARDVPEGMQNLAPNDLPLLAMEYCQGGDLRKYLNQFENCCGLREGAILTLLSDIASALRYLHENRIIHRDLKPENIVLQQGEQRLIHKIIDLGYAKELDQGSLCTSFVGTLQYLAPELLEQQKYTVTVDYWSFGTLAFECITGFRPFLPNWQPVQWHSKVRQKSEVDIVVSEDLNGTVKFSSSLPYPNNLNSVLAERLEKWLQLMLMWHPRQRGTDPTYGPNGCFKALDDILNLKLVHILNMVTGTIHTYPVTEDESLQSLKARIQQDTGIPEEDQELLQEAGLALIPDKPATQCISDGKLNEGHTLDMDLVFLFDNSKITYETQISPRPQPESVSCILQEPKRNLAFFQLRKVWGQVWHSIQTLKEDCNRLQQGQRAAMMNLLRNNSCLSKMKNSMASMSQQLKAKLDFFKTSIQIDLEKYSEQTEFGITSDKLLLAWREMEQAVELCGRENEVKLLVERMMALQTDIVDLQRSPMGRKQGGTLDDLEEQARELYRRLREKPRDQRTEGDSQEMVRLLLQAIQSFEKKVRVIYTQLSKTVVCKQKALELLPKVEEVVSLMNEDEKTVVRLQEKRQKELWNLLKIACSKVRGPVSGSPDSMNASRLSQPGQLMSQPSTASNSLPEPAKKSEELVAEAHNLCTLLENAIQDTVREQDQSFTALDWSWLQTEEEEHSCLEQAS

Chain of Protein kinase C beta type (Homo sapiens) (P05771 2-671 limits assumed): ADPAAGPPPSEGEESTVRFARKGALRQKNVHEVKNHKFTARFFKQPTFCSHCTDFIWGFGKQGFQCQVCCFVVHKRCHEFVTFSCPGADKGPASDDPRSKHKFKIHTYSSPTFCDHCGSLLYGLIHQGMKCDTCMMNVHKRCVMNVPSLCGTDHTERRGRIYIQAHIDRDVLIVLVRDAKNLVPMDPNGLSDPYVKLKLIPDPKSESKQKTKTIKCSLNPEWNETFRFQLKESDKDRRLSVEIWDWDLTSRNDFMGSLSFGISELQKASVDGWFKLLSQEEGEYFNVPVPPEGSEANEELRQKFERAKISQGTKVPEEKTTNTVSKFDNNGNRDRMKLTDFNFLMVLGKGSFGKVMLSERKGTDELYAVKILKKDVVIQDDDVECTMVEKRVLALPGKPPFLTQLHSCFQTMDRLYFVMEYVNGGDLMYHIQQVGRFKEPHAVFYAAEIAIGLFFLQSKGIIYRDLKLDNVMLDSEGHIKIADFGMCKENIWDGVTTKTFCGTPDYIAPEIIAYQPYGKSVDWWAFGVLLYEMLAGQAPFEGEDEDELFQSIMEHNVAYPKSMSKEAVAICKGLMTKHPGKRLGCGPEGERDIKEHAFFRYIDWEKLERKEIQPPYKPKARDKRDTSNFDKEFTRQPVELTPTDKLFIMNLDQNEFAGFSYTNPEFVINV

Compound: Nc1n[nH]c2nnc(-c3c(-c4ccccc4)nn4ccccc34)cc12
inhibition [1]: 3.54%

inhibition [2]: -7.84% | inhibition [3]: -2.96% | inhibition [4]: -1.75% | inhibition [5]: 4.12% | inhibition [6]: 4.32%
Compound: C[C@]1(O)C[C@@H](c2nc(-c3ccc4ccc(-c5ccccc5)nc4c3)c3c(N)nccn32)C1

inhibition [7]: -1.61% | inhibition [8]: -0.4% | inhibition [9]: 1.81%
Compound: C[C@@]1(C(=O)Nc2ccc(F)nc2)CCCN1c1nc(Nc2cc(C3CC3)n[nH]2)c2cccn2n1

Compound: Oc1n[nH]c2nnc(-c3c(-c4ccccc4)nn4ccccc34)cc12
inhibition [10]: -0.37%
